For 6 compounds, Activity and MIC results are on record in ChEMBL document CHEMBL4840325, “Discovery of an Unexpected 1,4-Oxazepine-Linked seco-Fluostatin Heterodimer by Inactivation of the Oxidoreductase-Encoding Gene flsP” (2021).

In experiment [1] the test system is MCF7. Kind of experiment: Cytotoxicity against human MCF7 cells assessed as reduction in cell viability at 0.5 to 16 uM measured after 72 hrs by SRB assay. In kind it is functional, cell-based. The conditions noted are these: dose 0.5-16 µM. (The SRB assay estimates cell density from bound dye.)
Experiment [2] deals with HepG2. Put plainly: Cytotoxicity against human HepG2 cells assessed as reduction in cell viability at 0.5 to 16 uM measured after 72 hrs by SRB assay. Particulars: dose 0.5-16 µM. In kind it is functional, cell-based.
Experiment [3] relates to SF-268. Put plainly: Cytotoxicity against human SF-268 cells assessed as reduction in cell viability at 0.5 to 16 uM measured after 72 hrs by SRB assay. In kind it is functional, cell-based. The conditions noted are these: dose 0.5-16 µM.
For experiment [4], the system named is Candida albicans. Kind of experiment: Antifungal activity against Candida albicans SC5314 assessed as fungal growth inhibition incubated for 16 to 18 hrs by broth microdilution method. In kind it is functional. The conditions noted are these: time 16-18 hrs.

The structures appear in SMILES notation. ≈ marks a conversion by molar mass, not a printed value. Calls of active or inactive are those of the source. The calls are words filed in the database; no cut-off is given here.

Turning to `CO[C@@H]1c2c(cc(O)c3c2C(=O)c2cccc(O)c2-3)C(=O)C(C)(Cl)[C@H]1O` (stereo partly specified), the outcome in experiment [1], in experiment [2] and in experiment [3] was inactive. The MIC – broadly, the lowest concentration found to suppress growth – in experiment [4] was 100 µM (≈ 37.5 µg/mL).

As to `CCC(C)C(=O)O[C@@H]1c2c(cc(O)c3c2C(=O)c2cccc(O)c2-3)C(=O)C(C)(Cl)[C@H]1O` (stereo partly specified), the result in experiment [1], in experiment [2] and in experiment [3] was inactive.

In the case of `C[C@]12O[C@H]1[C@H](Nc1ccccc1C(=O)O)c1c(cc(O)c3c1C(=O)c1cccc(O)c1-3)C2=O`, the result in experiment [1], in experiment [2] and in experiment [3] was inactive. Also, in experiment [4], the MIC came out at 100 µM (≈ 44.3 µg/mL).

Take `C[C@]12O[C@H]1[C@H](n1oc(=O)c3ccccc31)c1c(cc(O)c3c1C(=O)c1cccc(O)c1-3)C2=O`: the outcome in experiment [1], in experiment [2] and in experiment [3] was inactive.

With `CC(=O)/C=C/c1c2c(c3c4c1c(O)nn4[C@@H]1c4c(cc(O)c5c4C(=O)c4cccc(O)c4-5)C(=O)[C@](C)(O3)[C@H]1O)-c1c(O)cccc1C2=O`, the result in experiment [1], in experiment [2] and in experiment [3] was inactive.

As for `CC1(Nc2ccccc2C(=O)O)C(=O)c2cc(O)c3c(c2[C@@H](O)[C@@H]1O)C(=O)c1cccc(O)c1-3` (stereo partly specified), the outcome in experiment [1], in experiment [2] and in experiment [3] was inactive. The MIC in experiment [4] stood at 100 µM (≈ 46.1 µg/mL).
